# Assay results as given in patent EP2727944A1, “Depletion of CCR2-positive monocytes for the treatment of inflammatory conditions in the gastrointestinal system” (Universitätsklinikum Regensburg, priority 2012, dated 2014).
# Test system: CX3CR1/GFP^intLy6C^hi effector monocytes
# Assay: IL-6 ELISA of sorted colonic cells cultured with TLR/NOD2 ligands
# Assay type: cell-based, mice
# Details: cells sorted at DSS day 7, cultured 16 hr; Pam3CSK4 10 µg/ml, LPS 100 ng/ml
# Text: To probe whether the pro-inflammatory signature of the effector monocytes could have been a result of TLR and NOD-2 engagement, the cells were isolated from colitic mice and exposed to the respective ligands.
substance,measurement,value
Pam3CSK4,IL-6 secretion,substantial IL-6 secretion
